From PubChem BioAssay AID588780 (Sanford-Burnham Center for Chemical Genomics, 2011)
Active and inactive are the calls of the source.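 How the source made its calls: active means compounds whose fitted half-maximal concentration in the cell-protection dose series is at or below a set limit; inactive means the rest.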

tested on: H9c2 cardiomyocytes, 2-deoxyglucose stress, ATP luminescence, 2 h; assay: protection of cardiomyocytes from 2-deoxyglucose injury, dose response, cell-based, 2-deoxyglucose stress, uHTS hits (AID 588780)

Row | Structure (SMILES) | IC50
1 | Cc1ccc(CNC(=O)c2oc3ccc(S(=O)(=O)N4CCOCC4)cc3c2C)cc1 | 14.1 µM
2 | Cc1ccc2cc3c(NC(=O)c4cccnc4)nn(C)c3nc2c1 | > 79 µM (inactive)
3 | COc1cc2nc(C3CCC3)nc(N3CCN(c4ccccn4)CC3)c2cc1OC | > 79 µM (inactive)
4 | COCCn1c(=NC(=O)c2nc3ccccc3s2)sc2cc(S(C)(=O)=O)ccc21 | 28.3 µM
5 | Brc1ccc(-c2ccc(/C=N/Nc3nc(N4CCOCC4)nc(N4CCOCC4)n3)o2)cc1 | > 79 µM (inactive)
6 | O=c1[nH]c2ccccc2n1CCCN1CCC(n2c(=O)[nH]c3cc(Cl)ccc32)CC1 | > 79 µM (inactive)
7 | CC1CCN(CCCNC(=O)c2n[nH]c(=O)c3ccccc23)CC1 | > 79 µM (inactive)
8 | CCOC(=O)[C@H]1[C@H]2COc3ccc(Br)cc3[C@@H]2N2C(=O)c3cc(OC)c(OC)cc3NC(=O)[C@@]12C | 40 µM (inactive)
9 | COc1ccccc1OCCSc1nc2ccccc2c(=O)[nH]1 | > 79 µM (inactive)
10 | O=C(COc1cccc(NC(=O)c2cccc([N+](=O)[O-])c2)c1)c1ccc(F)cc1 | > 79 µM (inactive)
11 | COCCn1ccc2c(OCC(=O)Nc3ccccc3OC)cccc2c1=O | 20.8 µM
12 | COc1cc(C(=O)N/N=C/c2sc(N3CCOCC3)nc2-c2ccccc2)cc(OC)c1OC | 25.8 µM
13 | O=C(N/N=C/c1c(O)n(-c2ccccc2Cl)c(=O)c2ccccc12)C1COc2ccccc2O1 (stereo not drawn) | 16.2 µM
14 | CCCCN1CC(COCc2ccccc2)Oc2cccc(OCCN3C(=O)[C@@H]4[C@H](C3=O)C3C=C[C@H]4C3)c2S1(=O)=O (stereo partly drawn) | > 79 µM (inactive)
15 | COc1ccccc1C(=O)NCC(=O)N/N=C/c1cc(Br)ccc1OC(=O)/C=C\c1ccco1 | > 79 µM (inactive)
16 | Clc1ccccc1-c1nc(N/N=C/c2cccnc2)c2ccccc2n1 | 8.37 µM
17 | CC(C)c1ccccc1NC(=O)COC(=O)c1c2c(nc3ccccc13)CCN(Cc1ccccc1)C2 | > 79 µM (inactive)
18 | Cc1onc(-c2ccccc2)c1C(=O)NC(=S)NNC(=O)c1ccccc1O | 37.2 µM (inactive)
19 | O=C(CSc1nc2ccccc2c(=O)[nH]1)N1CCCCCC1 | > 79 µM (inactive)
20 | Cc1ccc(NC(=O)CSC(C)C(=O)OCc2cc(=O)oc3cc(O)ccc23)cc1 (stereo not drawn) | > 79 µM (inactive)
21 | COc1cc2c(cc1OC)CN(CC(=O)Nc1ccccc1C#N)CC2 | 44.1 µM (inactive)
22 | COc1cc(-c2nnc(-c3cc(OC)c(OC)c(OC)c3)o2)cc(OC)c1OC | > 79 µM (inactive)
23 | CN(CC(=O)Nc1ccc(F)cc1)C(=O)CCc1nc2ccccc2c(=O)[nH]1 | > 79 µM (inactive)
24 | COc1ccc(CC(=O)N/N=C(\C)c2ccccn2)cc1 | 26.7 µM

Row | Structure (SMILES) | IC50
25 | Cc1ccc(C(=O)OCC(=O)Nc2sccc2C(N)=O)cc1NC(=O)c1ccco1 | > 79 µM (inactive)
26 | COCCNC(=O)COC(=O)c1ccc(OCC(=O)Nc2ccccc2OC)c(OC)c1 | 22.9 µM
27 | Cn1c(/C=N/NC(=O)c2ccccc2)nc2ccccc21 | > 79 µM (inactive)
28 | COc1ccc(NC(=O)c2cc(-c3ccccn3)nc3ccccc23)cc1S(=O)(=O)N(C)C | > 79 µM (inactive)
29 | COc1ccc(CCNC(=O)C(=O)NCC2CCCN2S(=O)(=O)c2ccccc2)cc1OC (stereo not drawn) | > 79 µM (inactive)
30 | Cc1ccc(C)c(S(=O)(=O)N(C(=O)c2ccncc2)c2ccc(OC(=O)c3ccncc3)cc2)c1 | > 79 µM (inactive)
31 | N#Cc1c(-c2ccco2)cc(-c2cccnc2)nc1N | 12.1 µM
32 | CC1(C)CC(=O)C2=C(C1)N(CCN1CCOCC1)C1=C(C(=O)CC(C)(C)C1)C2c1ccc(Cl)cc1 | 31.3 µM (inactive)
33 | Cc1ccccc1NC(=O)COC(=O)CCc1nc2ccccc2c(=O)[nH]1 | > 79 µM (inactive)
34 | COc1cc(C(=O)N/N=C/c2ccc(OC(=O)c3ccccc3)c(OC)c2)ccc1O | > 79 µM (inactive)
35 | O=C(CN1CCN(Cc2ccccc2)CC1)Nc1ccc([N+](=O)[O-])cc1C(=O)Nc1ccccc1F | 35.6 µM (inactive)
36 | Cc1ncc(CO)c2c1Oc1nc(-c3ccccc3)nc(SCC(=O)N3CCCCC3)c1C2 | > 79 µM (inactive)
37 | O=C(Nc1nc(-c2cc(F)ccc2F)cs1)C1=NN(c2ccccc2)C(=O)CC1 | > 79 µM (inactive)
38 | COc1ccc(N(C(=O)c2cccnc2)S(=O)(=O)c2cccs2)cc1 | > 79 µM (inactive)
39 | Cc1cc(C)c(C)c(S(=O)(=O)N2CCC(C(=O)NNC(=O)c3ccccc3O)CC2)c1C | > 79 µM (inactive)
40 | O=C(Cc1n[nH]c(=O)c2ccccc12)NCc1ccc(Cl)cc1 | > 79 µM (inactive)
41 | CCCCOc1ccc(C(=O)NCC(=O)N(C)Cc2nc3ccccc3c(=O)[nH]2)cc1 | > 79 µM (inactive)
42 | COc1cc(-c2cnc3c(NC=O)cc(-c4ccsc4)cn23)cc(OC)c1OC | > 79 µM (inactive)
43 | CCCCn1nc(NC(=O)c2cccs2)c2cc3ccccc3nc21 | 18.2 µM
44 | COc1cc2c(cc1OC)CN(c1nc(-c3cccnc3)nc3ccccc13)CC2 | > 79 µM (inactive)
45 | OC1CCN(c2c3c(nc4cc(-c5cccc(F)c5)nn24)CCCC3)CC1 | 23.6 µM
46 | CC(C)(C)NC(=O)COC(=O)c1c2c(nc3ccccc13)CCC2 | 15.1 µM
47 | COc1cc2c(C#CCCCO)c(-c3ccsc3)oc(=O)c2cc1OC | > 79 µM (inactive)
48 | COc1ccc(OC)c(Nc2nc(N)c([N+](=O)[O-])c(N3CCOCC3)n2)c1 | 20.9 µM

Row | Structure (SMILES) | IC50
49 | COc1ccc(NC(=O)CCc2nc3ccccc3c(=O)[nH]2)cc1S(=O)(=O)N1CCCCC1 | > 79 µM (inactive)
50 | CCN(CC)S(=O)(=O)c1ccc(Nc2nc3ccccc3n3nnnc23)cc1 | > 79 µM (inactive)
51 | Cc1ccc(NC(=O)c2cc(=O)c3ccccc3o2)cc1S(=O)(=O)N1CCOCC1 | 35.4 µM (inactive)
52 | CC(C)(C)OC(=O)N1CCC[C@H]1c1nnc(SCC(=O)Nc2ccc(Br)cc2)o1 | 17.7 µM
53 | CCN1CCN(c2nc3c(c(=O)[nH]2)CCC3)CC1 | > 79 µM (inactive)
54 | N#Cc1ccccc1S(=O)(=O)N1CCN(c2nc(-c3cccnc3)nc3ccccc23)CC1 | > 79 µM (inactive)
55 | CCOC(=O)c1cnc(SC)nc1Oc1cccc(NC(=O)c2cccc(Cl)c2Cl)c1 | 20.4 µM
56 | COc1cc(-c2cc(C(=O)Nc3cccc(C(C)=O)c3)c3ccccc3n2)cc(OC)c1OC | > 79 µM (inactive)
57 | Cc1cc(C)c(S(=O)(=O)N2CCN(C(=O)c3cc(=O)[nH]c4ccccc34)CC2)c(C)c1 | 19.3 µM
58 | COc1cccc(CN(C)C(=O)C(Cc2ccccc2)NC(=O)c2ccccc2)c1OC (stereo not drawn) | 20.8 µM
59 | CN1CCN(Cc2nc3ccccc3c(=O)[nH]2)CC1 | > 79 µM (inactive)
60 | CC(C)(C)OC(=O)CNC(=O)c1[nH]cnc1C(=O)NCC(=O)OCc1ccccc1 | > 79 µM (inactive)
61 | COC(=O)c1ccccc1NC(=O)c1nc2nc(C)cc(C)n2n1 | > 79 µM (inactive)
62 | C=C1C(C)C2C(Cc3ccccc3)NC(=O)C23OC(=O)/C=C/C(O)CCCC(C)C/C=C/C3C1O (stereo not drawn) | > 79 µM (inactive)
63 | CN(C)C(=O)c1ccc(-c2n[nH]c(=O)c3ccccc23)cc1 | > 79 µM (inactive)
64 | Cc1cc(NC(=O)COC(=O)Cn2[nH]c(=O)c3ccccc3c2=O)c([N+](=O)[O-])cc1C | > 79 µM (inactive)
65 | Cn1c2c(c(=O)n(C)c1=O)C(c1cccc([N+](=O)[O-])c1)Nc1ccccc1O2 (stereo not drawn) | > 79 µM (inactive)
66 | O=c1c2ccccc2nc(/C=C/c2ccc(O)cc2)n1-c1ccc(O)cc1 | > 79 µM (inactive)
67 | O=C(OCc1cc(=O)n2ccsc2n1)c1ccc(O)cc1O | > 79 µM (inactive)
68 | O=C1c2ccccc2NC(c2ccc(-c3ccc(Br)cc3)o2)N1O (stereo not drawn) | 19 µM
69 | CCn1c2ccccc2c2nc3cc(OC)c(OC)cc3nc21 | > 79 µM (inactive)
70 | CCOC(=O)c1ccccc1OCc1cc(/C=N/NC(=O)c2cccnc2)ccc1OC | 10.7 µM
71 | CCOC(=O)C1CCN(C(c2cc3c(C)ccc(C)c3[nH]c2=O)c2nnnn2C2CCCCC2)CC1 (stereo not drawn) | > 79 µM (inactive)
72 | COc1ccccc1-c1cc(NC=O)c2ncc(-c3cccc(C(C)=O)c3)n2c1 | > 79 µM (inactive)

Row | Structure (SMILES) | IC50
73 | CCN(CC(=O)Nc1c(F)cccc1F)C(=O)Cn1[nH]c(=O)c2ccccc2c1=O | > 79 µM (inactive)
74 | COc1cc(-c2nnc(-c3cc(-c4ccccc4)nc4ccccc34)o2)cc(OC)c1OC | 5.22 µM
75 | COc1ccc(S(=O)(=O)N(CCCN2CCCC2=O)Cc2cc3cc(C)c(C)cc3[nH]c2=O)cc1 | 26.9 µM
76 | Cc1cc(C)c(C(=O)CC(=O)c2ccccc2Cl)c(O)c1 | > 79 µM (inactive)
77 | C=CCOc1ccc(C=Nc2ccc(OC)cc2)c(O)c1 | 23.8 µM
78 | CCCCCn1c(=O)c(C(=O)NCc2ccccn2)c(O)c2ccccc21 | 7.77 µM
79 | CC(=O)Nc1ccc2c(c1)[nH]c(=O)c1ccccc12 | 76.5 µM (inactive)
80 | O=c1[nH]c2cc3c(cc2cc1CN(Cc1nnnn1CC1CCCO1)C1CCCCC1)OCO3 (stereo not drawn) | 57.1 µM (inactive)
81 | COc1cc(C(=O)N/N=C/c2ccc(OC(=O)c3ccccc3Cl)cc2)ccc1O | > 79 µM (inactive)
82 | Cc1ccc(C)c2[nH]c(=O)c(CN(Cc3ccc4c(c3)OCO4)Cc3nnnn3Cc3ccco3)cc12 | 13.1 µM
83 | COc1ccccc1C(=O)COC(=O)Cn1[nH]c(=O)c2ccccc2c1=O | > 79 µM (inactive)
84 | O=C(CSC1=NNC(c2ccccn2)S1)Nc1cccc(Cl)c1 (stereo not drawn) | > 79 µM (inactive)
85 | O=C1NC(c2cccs2)Nc2ccccc21 (stereo not drawn) | > 79 µM (inactive)
86 | CC(C)c1ccc(S(=O)(=O)N2CCN(CC(=O)c3ccc(O)c(O)c3)CC2)cc1 | 21.3 µM
87 | O=C(CCc1nc2ccccc2c(=O)[nH]1)NCc1ccco1 | > 79 µM (inactive)
88 | CC(C)(C)OC(=O)C[C@@H]1C/C=C\C[C@@H](CC(=O)N[C@H](CO)Cc2ccccc2)C(=O)NC[C@@H](c2ccccc2)OC1=O | > 79 µM (inactive)
89 | COc1ccc(-c2cc(C(=O)N(C)Cc3ccccc3F)c3ccccc3n2)cc1OC | > 79 µM (inactive)
90 | CC(C)=CCc1ccc(O)c(=O)cc1C(C)C | > 79 µM (inactive)
91 | COC(=O)[C@@]12CCCCN1[C@H](c1ccc(-c3cc(C(C)=O)cs3)cc1)[C@H]1C(=O)N(C)C(=O)[C@H]12 | > 79 µM (inactive)
92 | O=C(CCc1nc2ccccc2c(=O)[nH]1)NNC(=O)c1ccc(Cl)cc1 | > 79 µM (inactive)
93 | O=C(CNC(=O)c1cccc(F)c1)N/N=C/c1cc(Br)ccc1OC(=O)/C=C/c1ccco1 | > 79 µM (inactive)
